# Patent US4594238A (Regents of University of Minnesota, priority 1984, dated 1986)
# Legend:
# [1] = cited from earlier work; for Bone marrow toxicity: in vivo
# [2] = Urinary excretion of free and conjugated DDTC; format: in vivo, rats; settings: combination of DDTC and acetazolamide, even when NaDDTC dose reduced by 80%
# Excerpt: Intravenous administration was explored in an attempt to deliver larger quantities of free DDTC anion to the likely site of toxicity in the renal tubule; urinary excretion of DDTC was monitored as a means of estimating changes in tubular levels of free DDTC. The standard assay for DDTC anion utilizes a spectrophotometric determination following reaction with cupric ion to form the colored Cu(DDTC)2 complex. Unfortunately, the affinity of cupric ion for sulfur ligands is such that this metal ion will catalyze the decomposition of the DDTC glucuronide and therefore will not discriminate between free and conjugated DDTC. Ferric ion does react selectively with the free ligand, thereby providing a convenient assay for both free and total DDTC in urine.
# Excretion of free and conjugated NaDDTC in the urine of rats was measured as follows. NaDDTC was administered in selected doses via intraperitoneal or intravenous injection. Rats were then placed in metabolic cages and urine was collected and analyzed at 30 minute intervals. Urine samples (0.1-5.0 ml) were added to 2 ml of a solution containing ferric nitrate (20 mM) and sodium citrate (200 mM). The dark Fe (DDTC)3 complex was extracted into chloroform (4 ml) by vortexing for 5 minutes. The mixture was chilled, centrifuged for 1 minute, and the chloroform layer separated. To this chloroform solution was added saturated aqueous cupric sulfate (2 ml), and the mixture was vortexed for 5 minutes, chilled, and centrifuged for 1 minute. The chloroform solution was separated and the Cu(DDTC)2absorbance measured at 435 nm. Free DDTC was determined by comparison of absorbance to a standard curve. Total DDTC was determined by addition of 0. 05-1.0 ml of urine to 3 ml of saturated cupric sulfate followed by incubation at 45° for 30 minutes. The resulting Cu(DDTC)2 complex was extracted into chloroform and analyzed as described above. DDTC-glucuronide excretion was determined by subtraction of free from total DDTC.
# [3] = cited from earlier work; for Benefit when given before platinum(II): given before the platinum (II); for Binding to plasma platinum: in vivo
# [4] = Protection of rats against DDP toxicity by disulfiram via stomach tube, Example 1; format: in vivo, Male F344 (Fischer) rats; settings: disulfiram 2 g/kg via stomach tube 30 minutes before and 30 minutes after DDP
# Method: Male F344 (Fischer) rats (average weight, 150 g) were obtained from the Charles River Breeding Laboratory. They were divided into groups of four rats, placed in methacrylate cages, and given National Institute of Health chow for rodents and water ad lib, for 7 days. Average weight of the rats was 180 g (range, 160-200 g) when injected.
# Tetraethylthiuram disulfide (disulfiram) was obtained from Sigma Chemical Co., St. Louis MO. Sodium DDTC was prepared according to the procedure of Klopper and van der Kerk, Rec. Trav. Chim. 70:917 (1951); immediately prior to injection, it was dissolved in sterile water at a concentration of 100 mg/ml. Sodium bicarbonate was prepared in sterile water at a concentration of 50 mg/ml. All injections were carried out under brief ether anesthesia.
# Otherwise, weight and BUN were determined at 5 days after injection, reportedly the time of maximal observed toxicity. Evidence of gastrointestinal toxicity was obtained qualitatively by noting the presence or absence of diarrhea 3-5 days after injection.
# Disulfiram was administered to two groups of rats in lieu of NaDDTC, as described subsequently.
# [5] = polar solvents; cited from earlier work
compound,measurement,setting,value
N.N.O=C([O-])C1(C(=O)[O-])CCC1.[Pt+2] [CBDCA],Bone marrow toxicity,[1],increased bone marrow toxicity
NCC1(CN)CCCCC1.O=S(=O)([O-])[O-].[Pt+2] [TNO-6],Bone marrow toxicity,[1],increased bone marrow toxicity
"CC(=O)Nc1nnc(S(N)(=O)=O)s1 [acetazolamide, reference compound]",Renal excretion of DDTC with acetazolamide,[2],significant increases in renal excretion of DDTC
N[C@@H](CS)C(=O)O [cysteine],Benefit when given before platinum(II),[3],Some benefit was reported
same,Binding to plasma platinum,[3],may have the potential to bind to plasma platinum
"CCN(CC)C(=S)SSC(=S)N(CC)CC [disulfiram, Tetraethylthiuram disulfide]",BUN in survivors,[4],55 to 180 mg/dL
same,"Necropsy, intestine",[4],grossly hemorrhagic fluid-filled intestine
same,Weight loss and BUN levels in the survivors,[4],highly variable
same,Animals that died before day 5,[4]; in each group,Fifty
same,Solubility in polar solvents,[5],"relatively low solubility, particularly in polar solvents"
CC(C)(S)[C@@H](N)C(=O)O [penicillamine],Benefit when given before platinum(II),[3],Some benefit was reported
same,Binding to plasma platinum,[3],may have the potential to bind to plasma platinum
chlorohydroxy-isopropylamineplatinum [CHIP],Kidney toxicity,[1]; compared to first generation agents,low in kidney toxicity
same,Bone marrow toxicity,[1],high in bone marrow toxicity
